Patent US11820766B2, “Monoacylglycerol lipase modulators” (Janssen Pharmaceutica NV, priority 2018, dated 2023)
Where a name gives a salt, the structure may show the parent alone.

Molecular target: T1, human MGL from HeLa cells (Homo sapiens, UniProt Q99685)
T1 construct: combining endogenously expressed MGL from HeLa cells with test compounds; endogenous in cells; host or cells: HeLa cells / cell homogenates
T1 sequence (Q99685 1-303): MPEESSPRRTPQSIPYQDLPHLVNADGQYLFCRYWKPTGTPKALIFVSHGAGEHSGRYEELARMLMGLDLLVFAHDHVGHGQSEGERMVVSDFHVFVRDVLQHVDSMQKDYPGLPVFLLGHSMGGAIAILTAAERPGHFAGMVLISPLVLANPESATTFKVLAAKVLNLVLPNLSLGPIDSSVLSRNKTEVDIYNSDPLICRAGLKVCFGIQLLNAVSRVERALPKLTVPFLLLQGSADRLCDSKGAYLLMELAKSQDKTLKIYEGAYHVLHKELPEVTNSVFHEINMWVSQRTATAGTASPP
Test: In vitro MGL activity assay: [glycerol-1,3-3H]-oleyl glycerol cleavage by MGL from HeLa cells
Type: biochemical
Conditions: 300 nM [Glycerol-1,3-3H]-oleyl glycerol, one hour
Source text: MGL is the predominant hydrolase in HeLa cells/cell homogenates.

SMILES | IC50
Cc1cnc2cccc(C(=O)N3CCc4c(nn(C)c4-c4cc(F)c(F)c(F)c4)[C@@H]3C)c2n1 [Example 475, [(7S)-2,7-Dimethyl-3-(3,4,5-trifluorophenyl)-5,7-dihydro-4H-pyrazolo[3,4-c]pyridin-6-yl]-(3-methylquinoxalin-5-yl)methanone] | 0.0736 µM
C[C@H]1c2nn(C)c(-c3cc(F)c(F)c(F)c3)c2CCN1C(=O)c1ccc2c(c1)OCC(=O)N2C [Example 590, 7-[(7S)-2,7-Dimethyl-3-(3,4,5-trifluorophenyl)-5,7-dihydro-4H-pyrazolo[3,4-c]pyridine-6-carbonyl]-4-methyl-1,4-benzoxazin-3-one.TFA salt] | 0.173 µM
Cc1nc2c(C)ccnn2c1C(=O)N1CCc2c(nn(C)c2-c2cc(F)c(F)c(F)c2)[C@@H]1C [Example 456, (2,8-Dimethylimidazo[1,2-b]pyridazin-3-yl)-[(7S)-2,7-dimethyl-3-(3,4,5-trifluorophenyl)-5,7-dihydro-4H-pyrazolo[3,4-c]pyridin-6-yl]methanone] | 0.0254 µM
C[C@H]1c2nn(C)c(-c3cc(F)c(F)c(F)c3)c2CCN1C(=O)c1ccc2nccc(Br)c2c1 [Example 547, (4-Bromo-6-quinolyl)-[(7S)-2,7-dimethyl-3-(3,4,5-trifluorophenyl)-5,7-dihydro-4H-pyrazolo[3,4-c]pyridin-6-yl]methanone] | 0.00562 µM
C[C@H]1c2nn(C)c(-c3cc(F)c(F)c(F)c3)c2CCN1C(=O)c1cnc2cccc(F)c2c1 [Example 545, [(7S)-2,7-Dimethyl-3-(3,4,5-trifluorophenyl)-5,7-dihydro-4H-pyrazolo[3,4-c]pyridin-6-yl]-(5-fluoro-3-quinolyl)methanone] | 0.0117 µM
C[C@H]1c2nn(C)c(-c3cc(F)c(F)c(F)c3)c2CCN1C(=O)c1ccc2[nH]c(=O)oc2c1 [Example 588, 6-[(7S)-2,7-Dimethyl-3-(3,4,5-trifluorophenyl)-5,7-dihydro-4H-pyrazolo[3,4-c]pyridine-6-carbonyl]-3H-1,3-benzoxazol-2-one] | 0.0113 µM
C[C@H]1c2nn(C)c(-c3ccnc(C(F)(F)F)c3)c2CCN1C(=O)c1ccc2ncccc2c1 [Example 523, [(7S)-2,7-Dimethyl-3-[2-(trifluoromethyl)-4-pyridyl]-5,7-dihydro-4H-pyrazolo[3,4-c]pyridin-6-yl]-(6-quinolyl)methanone] | 0.417 µM
C[C@H]1c2nn(C)c(-c3cc(F)c(F)c(F)c3)c2CCN1C(=O)c1cnc2ncccc2c1 [Example 490, [(7S)-2,7-Dimethyl-3-(3,4,5-trifluorophenyl)-5,7-dihydro-4H-pyrazolo[3,4-c]pyridin-6-yl]-(1,8-naphthyridin-3-yl)methanone] | 0.226 µM
C[C@H]1c2nn(C)c(-c3cc(F)c(F)c(F)c3)c2CCN1C(=O)c1ccc2oc(=O)[nH]c2c1 [Example 586, 5-[(7S)-2,7-Dimethyl-3-(3,4,5-trifluorophenyl)-5,7-dihydro-4H-pyrazolo[3,4-c]pyridine-6-carbonyl]-3H-1,3-benzoxazol-2-one] | 1 µM
C[C@H]1c2nn(C)c(-c3cc(F)c(F)c(F)c3)c2CCN1C(=O)c1cnn2c1NCCC2C(F)(F)F (stereo partly drawn) [Example 558, ((S)-2,7-Dimethyl-3-(3,4,5-trifluorophenyl)-4,5-dihydro-2H-pyrazolo[3,4-c]pyridin-6 (7H)-yl)(7-(trifluoromethyl)-4,5,6,7-tetrahydropyrazolo[1,5-a]pyrimidin-3-yl)methanone] | 1.8 µM
C[C@H]1c2nn(C)c(-c3cc(F)c(F)c(F)c3)c2CCN1C(=O)c1cccc2c1COCC2 [Example 579, [(7S)-2,7-Dimethyl-3-(3,4,5-trifluorophenyl)-5,7-dihydro-4H-pyrazolo[3,4-c]pyridin-6-yl]-isochroman-8-yl-methanone] | 0.00818 µM
Cc1c[nH]c2ncnc(C(=O)N3CCc4c(nn(C)c4-c4cc(F)c(F)c(F)c4)[C@@H]3C)c12 [Example 464, [(7S)-2,7-Dimethyl-3-(3,4,5-trifluorophenyl)-5,7-dihydro-4H-pyrazolo[3,4-c]pyridin-6-yl]-(5-methyl-7H-pyrrolo[2,3-d]pyrimidin-4-yl)methanone] | 0.0314 µM
C[C@H]1c2nn(C)c(-c3cc(F)c(F)c(F)c3)c2CCN1C(=O)c1nnn2ccccc12 [Example 441, [(7S)-2,7-Dimethyl-3-(3,4,5-trifluorophenyl)-5,7-dihydro-4H-pyrazolo[3,4-c]pyridin-6-yl]-(triazolo[1,5-a]pyridin-3-yl)methanone] | 0.0241 µM
Cc1nn(C)c(C)c1C(=O)N1CCc2c(nn(C)c2-c2cc(F)c(F)c(F)c2)[C@@H]1C [Example 344, [(7S)-2,7-Dimethyl-3-(3,4,5-trifluorophenyl)-5,7-dihydro-4H-pyrazolo[3,4-c]pyridin-6-yl]-(1,3,5-trimethylpyrazol-4-yl)methanone] | 0.0581 µM
COc1cccc2c(C(=O)N3CCc4c(nn(C)c4-c4cc(F)c(F)c(F)c4)[C@@H]3C)ccnc12 [Example 550, [(7S)-2,7-Dimethyl-3-(3,4,5-trifluorophenyl)-5,7-dihydro-4H-pyrazolo[3,4-c]pyridin-6-yl]-(8-methoxy-4-quinolyl)methanone] | 0.0483 µM
CC1c2nn(C34CC(C3)C4)c(-c3ccccc3)c2CCN1C(=O)c1cnn(C)c1C1CC1 (racemic) [Example 615, racemic-(2-(Bicyclo[1.1.1]pentan-1-yl)-7-methyl-3-phenyl-2,4,5,7-tetrahydro-6H-pyrazolo[3,4-c]pyridin-6-yl)(5-cyclopropyl-1-methyl-1H-pyrazol-4-yl)methanone] | 0.821 µM
Cc1nc(C(=O)N2CCc3c(nn(C)c3-c3cc(F)c(F)c(F)c3)[C@@H]2C)c2ncccn12 [Example 460, [(7S)-2,7-Dimethyl-3-(3,4,5-trifluorophenyl)-5,7-dihydro-4H-pyrazolo[3,4-c]pyridin-6-yl]-(6-methylimidazo[1,5-a]pyrimidin-8-yl)methanone] | 0.522 µM

Same assay, conditions: 300 nM [Glycerol-1,3-3H]-oleyl glycerol, one hour incubation

SMILES | IC50
CC(C)c1c(C(=O)N2CCc3c(nn(C)c3-c3cc(F)c(F)c(F)c3)[C@@H]2C)cnn1C [Example 328, [(7S)-2,7-Dimethyl-3-(3,4,5-trifluorophenyl)-5,7-dihydro-4H-pyrazolo[3,4-c]pyridin-6-yl]-(5-isopropyl-1-methyl-pyrazol-4-yl)methanone] | 1.09 µM
C[C@H]1c2nn(C)c(-c3cc(F)c(F)c(F)c3)c2CCN1C(=O)c1c[nH]c2ccncc12 [Example 218, (S)-(2,7-Dimethyl-3-(3,4,5-trifluorophenyl)-2,4,5,7-tetrahydro-6H-pyrazolo[3,4-c]pyridin-6-yl)(1H-pyrrolo[3,2-c]pyridin-3-yl)methanone] | 0.0352 µM
C[C@H]1c2nn(C)c(-c3cc(F)c(F)c(F)c3)c2CCN1C(=O)c1ccn2nccc2c1 [Example 228, (S)-(2,7-Dimethyl-3-(3,4,5-trifluorophenyl)-2,4,5,7-tetrahydro-6H-pyrazolo[3,4-c]pyridin-6-yl)(pyrazolo[1,5-a]pyridin-5-yl)methanone] | 0.0481 µM
C[C@H]1c2nn(C)c(-c3cc(F)c(F)c(F)c3)c2CCN1C(=O)c1cc(F)cc(-n2cncn2)c1 [Example 277, [(7S)-2,7-Dimethyl-3-(3,4,5-trifluorophenyl)-5,7-dihydro-4H-pyrazolo[3,4-c]pyridin-6-yl]-[3-fluoro-5-(1,2,4-triazol-1-yl)phenyl]methanone] | 0.022 µM
COc1cccnc1C(=O)N1CCc2c(nn(C)c2-c2cc(F)c(F)c(F)c2)[C@@H]1C [Example 303, [(7S)-2,7-Dimethyl-3-(3,4,5-trifluorophenyl)-5,7-dihydro-4H-pyrazolo[3,4-c]pyridin-6-yl]-(3-methoxy-2-pyridyl)methanone] | 0.113 µM
COc1ccc(C(=O)N2CCc3c(nn(C)c3-c3cc(F)c(F)c(F)c3)[C@@H]2C)cc1-c1ccn(C)n1 [Example 271, [(7S)-2,7-Dimethyl-3-(3,4,5-trifluorophenyl)-5,7-dihydro-4H-pyrazolo[3,4-c]pyridin-6-yl]-[4-methoxy-3-(1-methylpyrazol-3-yl)phenyl]methanone] | 0.182 µM
C[C@H]1c2nn(C)c(-c3cc(F)cc(F)c3)c2CCN1C(=O)c1ccnc2c1ccn2CCF [Example 152, (S)-(3-(3,5-Difluorophenyl)-2,7-dimethyl-2,4,5,7-tetrahydro-6H-pyrazolo[3,4-c]pyridin-6-yl)(1-(2-fluoroethyl)-1H-pyrrolo[2,3-b]pyridin-4-yl)methanone] | 0.00163 µM
Cn1nc2c(c1C1CC1)CCN(C(=O)c1cccc3ccccc13)C2 [Example 3, (3-Cyclopropyl-2-methyl-2,4,5,7-tetrahydro-6H-pyrazolo[3,4-c]pyridin-6-yl)(naphthalen-1-yl)methanone] | 0.799 µM
C[C@H]1c2nn(C)c(-c3cc(Cl)cc(Cl)c3)c2CCN1C(=O)c1nn(C)c2ncccc12 [Example 173, (S)-(3-(3,5-Dichlorophenyl)-2,7-dimethyl-2,4,5,7-tetrahydro-6H-pyrazolo[3,4-c]pyridin-6-yl)(1-methyl-1H-pyrazolo[3,4-b]pyridin-3-yl)methanone] | 0.018 µM
Cn1nc2c(c1-c1ccccc1)CCN(C(=O)c1cccc(O)c1Cl)C2 [Example 12, (2-Chloro-3-hydroxyphenyl)(2-methyl-3-phenyl-2,4,5,7-tetrahydro-6H-pyrazolo[3,4-c]pyridin-6-yl)methanone] | 3.42 µM
Cn1nc2c(c1-c1ccccc1)CCN(C(=O)c1cccc3[nH]c(C(F)(F)F)nc13)C2 [Example 72, (2-Methyl-3-phenyl-2,4,5,7-tetrahydro-6H-pyrazolo[3,4-c]pyridin-6-yl)(2-(trifluoromethyl)-1H-benzo[d]imidazol-4-yl)methanone] | 2.32 µM
